Experimental data taken from patent US8198332B2, “Salicylamide derivatives as nicotinic alpha 7 modulators” (Roche Palo Alto LLC, priority 2008, dated 2012).

Target: T1, human nicotinic alpha7 WT receptor (Homo sapiens, UniProt P36544)
T1 construct: expressed in transfected cells; host or cells: GH4C1 cells (rat pituitary-derived cell line), RPA clone #34.7
Test: Nicotinic alpha 7 modulation assay (FLIPR, cytosolic Ca2+ elevation, FLUO-3)
Type: cell-based
Procedure: Cell Culture Growth Media: F10 medium (Invitrogen), 2.5% Fetal Bovine Serum (FBS, Summit Biotechnology); 15% heat inactivated donor Horse Serum (Invitrogen), 250 μg/ml Hygromycin B (Invitrogen); and 100 nM Methyllicaconite (MLA, Sigma) are added to each new culture by 50-fold dilution of stock solution prepared in H2O at […].
GH4C1 cells (rat pituitary-derived cell line) stably expressing human nicotinic alpha7 WT receptor (RPA clone #34.7) are cultivated in cell culture growth media (described above) at 37 C in a humidified atmosphere containing 4% CO2. […]
The alpha 7 nAChR assay is a cell-based functional readout designed to determine the effect of test compounds to either directly activate nicotinic receptor channels and/or to modulate activation by the native agonist acetylcholine (ACh, Sigma). […]
Assay of test compound effect on activation of the alpha7 nicotinic receptor channel is done by measurement of cytosolic [Ca^2+] elevation as reported by increased FLUO-3 fluorescence using a two addition experimental design and FLIPR™ (Molecular Devices). Following a 30 second baseline recording, test compounds are added online (dilution scheme below) and cell response is recorded for an additional 5 minutes. After a second addition of ACh (30 μM, FAC), plates are read for an additional 4 minutes. […]

T1 sequence (P36544 23-502): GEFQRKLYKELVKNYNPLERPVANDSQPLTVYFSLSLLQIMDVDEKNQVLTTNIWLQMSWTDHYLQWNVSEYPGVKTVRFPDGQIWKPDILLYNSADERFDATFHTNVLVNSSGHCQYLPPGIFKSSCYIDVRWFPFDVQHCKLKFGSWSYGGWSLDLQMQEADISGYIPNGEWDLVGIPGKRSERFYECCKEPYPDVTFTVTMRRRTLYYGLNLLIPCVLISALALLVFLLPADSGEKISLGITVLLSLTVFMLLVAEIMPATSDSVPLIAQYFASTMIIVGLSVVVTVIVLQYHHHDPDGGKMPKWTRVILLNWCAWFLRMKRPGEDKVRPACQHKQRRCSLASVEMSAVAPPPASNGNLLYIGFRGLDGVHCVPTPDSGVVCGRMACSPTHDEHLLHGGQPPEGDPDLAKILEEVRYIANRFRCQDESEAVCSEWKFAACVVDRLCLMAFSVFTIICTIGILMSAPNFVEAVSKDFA

C#CC1(NC(=O)c2cc(-c3ccc(OC)cc3C)ccc2OCC2CC2)CCCCC1 [I-6, 4-Cyclopropylmethoxy-4′-methoxy-2′-methyl-biphenyl-3-carboxylic acid (1-ethynyl-cyclohexyl)-amide]
EC50: 220 nM
positive allosteric modulation (GH4C1 cells stably expressing human nicotinic alpha7 WT receptor, FLIPR, second addition of ACh 30 μM): 255%
